“Also recorded” adds a separate entry of the source. Where a name gives a salt, the structure may show the parent alone.
Key:
DLD-1 cells [1] = assay: Cell cycle analysis by propidium iodide staining; format: cell-based, human; conditions: 72 hours
Protocol: The cell cycle was analyzed by propidium iodide (PI) staining to investigate the mechanism of cancer cell proliferation suppression of DFO and PEG-P[Asp(DFO)m]n.
[Preparation of DFO Solution and PEG-P[Asp(DFO)10]35 Solution] • DFO/D-PBS solution: 45.0 μM • PEG-P[Asp(DFO)10]35/D-PBS solution: 61.0 μM (DFO concentration=600 μM)
DLD-1 cells were seeded on a 6-well plate at 2.0×10^5 cells/well and pre-cultured at 37° C. under 5% CO2 for 24 hours. The prepared solution described above was diluted 10-fold with RPMI, and then 3 mL was added to each well followed by incubating for 72 hours. After washing with 3 mL of D-PBS, 700 μL of a Trypsin-EDTA solution was added thereto followed by incubating for 10 min. After confirming that the cells had been peeled off under an optical microscope, 700 μL of D-PBS containing 10% FBS was added thereto, and the cells were sufficiently suspended. The suspension was centrifuged at 1,200 rpm for 3 min to remove the supernatant. 500 μL of D-PBS was added to the cell pellet, which was subsequently suspended. The suspension was dropwise added to 4.5 mL of 70% ethanol and fixed in a −20° C. freezer overnight. […] Finally, the suspension was filtered through a cell strainer, and the fluorescence of propidium iodide was measured using FCM. The measured data were analyzed by ModFit LT. […]

DLD-1 cells [2] = assay: Cell proliferation suppressive action by CCK-8 assay; format: cell-based, human; conditions: 72 hours, CCK-8, absorbance at 450 nm
Protocol: The cancer cell proliferation suppressive action of PEG-P[Asp(DFO)m]n was evaluated by CCK-8 assay.
[Preparation of DFO Solution, PEG-P[Asp(DFO)10]35 Solution, and PEG-P[Asp(DFO)26]78 Solution] • DFO/D-PBS solution: 3.00 mM • PEG-P[Asp(DFO)10]35/D-PBS solution: 0.305 mM (DFO concentration=3.00 mM) • PEG-P[Asp(DFO)26]78/D-PBS solution: 0.118 mM (DFO concentration=3.00 mM)
DLD-1 cells were seeded on a 96-well plate at 1.0×10^3 cells/well and pre-cultured at 37° C. under 5% CO2 for 24 hours. 10 μL of the prepared solution described above was added to each well followed by incubating for 72 hours. 10 μL of CCK-8 solution was added to each well, and after incubating for 2 hours, the absorbance at 450 nm was measured. The results are shown as the value of mean±S.D. (n=5), and a statistically significant difference was evaluated by the t-test (****p<0.0001).

[3] = Pharmacokinetics (blood retention, tumor accumulation) in subcutaneous CT26 tumor mouse model; format: in vivo; conditions: intravenous
Protocol: To evaluate the blood retention and the tumor accumulation of DFO and PEG-P[Asp(DFO)m]n), a DFO/Ga (III) complex and a PEG-P[Asp(DFO)m]n/Ga (III) complex were intravenously injected into the subcutaneous CT26 tumor mouse model, and the Ga contents in the blood and the tumor after a predetermined period of time were measured by ICP-MS.
300 μL of a 26.8 mM GaCl3/D-PBS solution was added to 2.70 mL of a 16.9 mM DFO/D-PBS solution, and the resultant solution was stirred overnight. The pH was adjusted to 7.4 with NaOH, and then the solution was filtered through a filter.
300 μL of 26.8 mM GaCl3/D-PBS solution was added to 2.70 mL of a 1.71 mM PEG-P[Asp(DFO)10]35/D-PBS solution (DFO concentration=16.9 mM), and the resultant solution was stirred overnight. The reaction solution was placed in an ultrafiltration membrane (MWCO=10 kD) and subjected to ultrafiltration five times. 3 mL of D-PBS was added to the purified solution, and the resultant solution was filtered through a filter. […]
100 μl of the prepared solution described above was intravenously administered (DFO: […]) to the tail vein of a model mouse of which the tumor size reached about 200 mm^3. […] After filling up to 10 mL with pure water and filtration with a hydrophobic filter, the gallium contents of the blood and the various organs were measured by ICP-MS. […]

DLD-1 cells [4] = assay: Free iron in the cytoplasm detected with FerroOrange; format: cell-based, human; conditions: 2.00 mM DFO-concentration solution diluted 10-fold, 24 hours
Protocol: To investigate whether DFO and PEG-P[Asp(DFO)m]n would decrease free iron in the cytoplasm, the free iron in the cytoplasm of cells treated with DFO and PEG-P[Asp(DFO)m]n was detected with FerroOrange.
[Preparation of DFO Solution and PEG-P[Asp(DFO)10]35 Solution] • DFO/D-PBS solution: 2.00 mM • PEG-P[Asp(DFO)10]35/D-PBS solution: […] (DFO concentration=2.00 mM) [Observation with Confocal Microscope]
DLD-1 cells were seeded on 35 mm^2 glass base dishes at 3.0×10^5 cells/well and pre-cultured at 37° C. under 5% CO2 for 24 hours. After removing the solution, 2 mL of the prepared solution described above, diluted 10-fold with RPMI, was added to each dish followed by incubating for 24 hours. After washing with 2 mL of serum-free RPMI, 1 mL of serum-free RPMI containing […] FerroOrange was added thereto followed by incubating in a dark place for 30 min. Thereafter, the fluorescence of FerroOrange was observed by CLSM.
DLD-1 cells were seeded on a 96-well plate at 1.0×10^4 cells/well and pre-cultured at 37° C. under 5% CO2 for 24 hours. After removing the solution, 100 μL of the prepared solution described above, diluted 10-fold with RPMI, was added to each well followed by incubating for 24 hours. […] Then, the fluorescence intensity of FerroOrange was measured with a plate reader. […] The statistical significance was evaluated by Tukey's multiple comparison test (****p<0.0001).

DLD-1 cells [5] = assay: DNA synthesis inhibition by BrdU staining; format: cell-based, human; conditions: 72 hours
Protocol: To investigate the mechanism of cell cycle arrest in the S phase by DFO and PEG-P[Asp(DFO)m]n, DNA synthesis inhibition was evaluated by BrdU staining.
[Preparation of DFO Solution and PEG-P[Asp(DFO)10]35 Solution] • DFO/D-PBS solution: 450 μM • PEG-P[Asp(DFO)10]35/D-PBS solution: […] (DFO concentration=600 μM) [Observation with Confocal Microscope]
DLD-1 cells were seeded on 35 mm^2 glass base dishes at 1.0×10^5 cells/well and pre-cultured at 37° C. under 5% CO2 for 24 hours. After removing the solution, 3 mL of the prepared solution described above, diluted 10-fold with RPMI, was added to each well followed by incubating for 72 hours. Then, 330 μL of a 10 mM BrdU/D-PBS solution was added thereto followed by incubating for 1 hour. After removing the solution, 1 mL of 1.0 M HCl solution was added thereto followed by incubating for 10 min. After removing the solution, 1 mL of a 0.1 M sodium tetraborate buffer (pH 8.5) was added thereto followed by incubating for 30 min. […]
DLD-1 cells were seeded on a 6-well plate at 2.0×10^5 cells/well and pre-cultured at 37° C. under 5% CO2 for 24 hours. […] The number of cells was measured, and the cells in each sample were made to the same number. […] Finally, the suspension was filtered through a cell strainer, and the fluorescence of BrdU was measured using FCM.

DLD-1 cells [6] = assay: Apoptosis induction by PI staining and Annexin V staining; format: cell-based, human; conditions: 1.00 mM DFO-concentration solution diluted 10-fold, 24 hours
Protocol: In order to investigate whether DFO and PEG-P[Asp(DFO)m]n would induce apoptosis, apoptotic cells were detected by PI staining and Annexin V staining.
[Preparation of DFO Solution and PEG-P[Asp(DFO)10]35 Solution] • DFO/D-PBS solution: 1.00 mM • PEG-P[Asp(DFO)10]35/D-PBS solution: 100 μM (DFO concentration=1.00 mM)
DLD-1 cells were seeded on a 6-well plate at 1.0×10^5 cells/well and pre-cultured at 37° C. under 5% CO2 for 24 hours. After removing the solution, 3 mL of the prepared solution described above, diluted 10-fold with RPMI, was added to each well followed by incubating for 24 hours. After washing with 3 mL of D-PBS, 700 μL of a Trypsin-EDTA solution was added thereto followed by incubating for 10 min. After confirming that the cells had peeled off under an optical microscope, 700 μL of RPMI was added and suspended sufficiently. The suspension was centrifuged at 1,200 rpm for 3 min to remove the supernatant. 500 μL of RPMI was added, the number of cells was measured, and the cells in each sample were made to the same number. The suspension was centrifuged at 1,200 rpm for 3 min to remove the supernatant. […] After adding 400 μL of the binding buffer, the suspension was filtered through a cell strainer, and the fluorescence of PI and Annexin V was measured using FCM. […] The statistical significance was evaluated by Tukey's multiple comparison test (**** p<0.0001).

[7] = Non-Patent Documents 4 to 6; cited from earlier work
[8] = test system: various cancer cell lines; conditions: Non-Patent Documents 1 to 3; cited from earlier work

## CC(=O)N(O)CCCCCNC(=O)CCC(=O)N(O)CCCCCNC(=O)CCC(=O)N(O)CCCCCN [DFO, Deferoxamine mesylate]
DLD-1 cells [1]
  cell cycle arrest: induced cell cycle arrest in the S phase
DLD-1 cells [2]
  cell proliferation suppression: significantly suppressed the proliferation
[3]
  blood retention (in words): rapid disappearance from the blood; also recorded: disappeared from the blood at an early stage
DLD-1 cells [4]
  free iron in the cytoplasm (FerroOrange fluorescence): markedly decreased free iron in the cytoplasm
DLD-1 cells [5]
  DNA synthesis inhibition (BrdU uptake): BrdU uptake was significantly suppressed
DLD-1 cells [6]
  proportion of apoptotic and necrotic cells: significantly increased the proportion of apoptotic and necrotic cells
[7]
  half-life of the in-blood concentration: ≤ 20 min
[8]
  cell proliferation suppressive effect: cell proliferation suppressive effect through cell cycle arrest
